Results as given in patent publication US12636250B2, “Microneedle array patches (MAPs), systems, and methods for manufacturing and using same” (Terrestrial Bio, Inc., priority 2024, dated 2026).
“Also recorded” adds a separate entry of the source.

Legend:
[1] = Mold dissection for tip length and shell length (RTM-209); assay type: physicochemical; conditions: comparison between GLP-1 tip formulations
Method: Mold Dissection for Tip Length (RTM-209): The mold dissection method uses magnified images of sectioned molds to obtain measurements and morphology of the dried tips in the molds. After tip printing and drying, a mold is cross-sectioned with a razor blade in between rows of needles. The dried tips are imaged within the needle cavities using a microscope. The tip overall length and shell length are measured by image processing. The image scale is calibrated using a stage micrometer, and lengths in micrometers are calculated from the lengths measured in pixels. The shell length as a portion of overall length is an indication of consolidation. Minimal shell length, corresponding to maximum consolidation, is preferred.

[2] = Microneedle mechanical strength, Instron compression (crush) test (TM-404); assay type: physicochemical; conditions: for Tip strength (comparison in words): comparison between GLP-1 tip formulations

strength per needle ([2]; GLP-086, higher (3%) concentration of Proline vs feasibility (control) formulation) | Compound | Tip length / shell length / Tip consolidation (comparison in words) [1] | Tip strength (comparison in words) [2]
– | [Cl-].[Cl-].[Mg+2] [MgCl2] | also improved Tip consolidation | –
– | [Cl-].[Na+] [NaCl] | led to better consolidation of the Tips; also recorded: significantly reduced the shell length and improved the % consolidation of the Tip | comparable
> 0.6 N/needle | O=C(O)[C@@H]1CCCN1 [Proline] | did improve Tip consolidation | significantly improves the mechanical strength of GLP-1 containing needles
– | Cl.NC(CO)(CO)CO [Tris-HCl] | comparable to MOPS in terms of Tip length and strength | comparable to MOPS in terms of Tip length and strength
